Source: PubChem BioAssay (NCI)
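Test compounds were applied to cells in 96-well plates for 48 hours at 5 doses. GI50: concentration for 50% inhibition of growth. The concentration for full growth arrest is given as TGI.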

Key:
Test in all cases: NCI anticancer screen, dose series, 48 h
OVCAR-8 ovarian = test system: OVCAR-8 ovarian
SW-620 colon = test system: SW-620 colon
HT29 colon = test system: HT29 colon
OVCAR-3 ovarian = test system: OVCAR-3 ovarian
HOP-92 NSCLC = test system: HOP-92 NSCLC
MCF7 breast = test system: MCF7 breast
PC-3 prostate = test system: PC-3 prostate
BT-549 breast = test system: BT-549 breast
UO-31 renal = test system: UO-31 renal
HCC-2998 colon = test system: HCC-2998 colon

SMILES | GI50 (OVCAR-8 ovarian) | TGI (OVCAR-8 ovarian) | GI50 (SW-620 colon) | TGI (SW-620 colon) | GI50 (HT29 colon) | TGI (HT29 colon) | GI50 (OVCAR-3 ovarian) | TGI (OVCAR-3 ovarian) | GI50 (HOP-92 NSCLC) | TGI (HOP-92 NSCLC) | GI50 (MCF7 breast) | TGI (MCF7 breast) | GI50 (PC-3 prostate) | TGI (PC-3 prostate) | GI50 (BT-549 breast) | TGI (BT-549 breast) | GI50 (UO-31 renal) | TGI (UO-31 renal) | GI50 (HCC-2998 colon) | TGI (HCC-2998 colon)
CC(=O)c1ccc2c(c1)C1C=CCC1[C@H](c1cc3c(cc1Br)OCO3)N2 (stereo not given in full) | 1.63 µM | 13 µM | 0.448 µM | > 29.2 µM | 0.653 µM | 13 µM | 0.48 µM | 1.08 µM | < 0.0385 µM | 0.479 µM | 0.368 µM | 18.9 µM | 0.636 µM | 7.04 µM | 0.716 µM | 13.8 µM | 1.89 µM | 34.9 µM | 3.84 µM | 10.6 µM
COc1ccc2c(=O)cc(-c3ccccc3)[nH]c2c1 | 2.64 µM | > 46.6 µM | 0.444 µM | > 100 µM | 0.379 µM | > 100 µM | 0.408 µM | 2.14 µM | 0.378 µM | > 100 µM | 0.387 µM | > 100 µM | 0.389 µM | > 100 µM | 0.56 µM | > 27.7 µM | 0.716 µM | > 100 µM | 1.27 µM | 8.9 µM
COc1cc(F)c(F)c(Nc2ccc(I)cc2F)c1NS(=O)(=O)C1(C[C@H](O)CO)CC1 | > 6.48 µM | > 10 µM | 0.0591 µM | > 10 µM | 0.0308 µM | > 10 µM | > 6.76 µM | > 10 µM | 0.189 µM | 1.68 µM | > 5.31 µM | > 10 µM | > 6.75 µM | > 10 µM | > 5.26 µM | > 10 µM | 0.295 µM | > 10 µM | 0.0206 µM | > 4.24 µM
[C](#Cc1ccccc1)[Hg][C]#Cc1ccccc1 | 26.6 µM | 60.9 µM | 35.5 µM | > 100 µM | 14.1 µM | 40.9 µM | 39.8 µM | > 100 µM | 21.1 µM | 47.5 µM | 10.4 µM | 56.9 µM | 30.6 µM | 87.5 µM | 22.1 µM | 43.2 µM | 32.5 µM | 74.6 µM | 47.7 µM | 82.6 µM
C[C@@H]1C[C@H](C)CN(S(=O)(=O)c2ccc3c(NO)c4ccc(S(=O)(=O)N5C[C@H](C)C[C@H](C)C5)cc4c(N=O)c3c2)C1 | 0.232 µM | 0.527 µM | 0.0298 µM | 0.104 µM | 0.159 µM | 0.313 µM | 0.182 µM | 0.328 µM | 0.167 µM | 0.522 µM | 0.176 µM | 0.357 µM | 0.117 µM | 0.249 µM | 0.175 µM | 0.34 µM | 0.167 µM | 0.338 µM | 0.122 µM | 0.265 µM
CCc1ccc(NC(=O)NC(=O)c2ccccc2[N+](=O)[O-])cc1Oc1ncc(Cl)cn1 |  | > 100 µM |  | > 100 µM |  | 0.854 µM |  | 13.9 µM |  | > 100 µM |  | > 100 µM |  | > 100 µM |  | 35.7 µM |  | 45.5 µM |  | 0.0695 µM
FC(F)(c1ccc2ncccc2c1)c1nnc2ccc(-c3ccncc3)nn12 | 84.1 µM | > 100 µM | > 100 µM | > 100 µM | > 100 µM | > 100 µM | > 100 µM | > 100 µM | 18.3 µM | > 100 µM | 95.3 µM | > 100 µM | 74.6 µM | > 100 µM | 53.7 µM | > 100 µM | 19.2 µM | > 100 µM | > 100 µM | > 100 µM
CCOC(=O)C(Cc1c[nH]c2c(N(CCO)CCO)cccc12)(NC(C)=O)C(=O)OCC | > 1000 µM | > 1000 µM | 431 µM | > 1000 µM | 140 µM | 417 µM | 270 µM | 873 µM | > 1000 µM | > 1000 µM | 141 µM | 305 µM | 409 µM | > 1000 µM | 564 µM | > 1000 µM | > 1000 µM | > 1000 µM | > 1000 µM | > 1000 µM
COc1ccc(-c2ccncc2)cc1C(N)=O | > 25 µM | > 25 µM | > 25 µM | > 25 µM | > 25 µM | > 25 µM | > 25 µM | > 25 µM | > 25 µM | > 25 µM | > 25 µM | > 25 µM | > 25 µM | > 25 µM | > 25 µM | > 25 µM | > 25 µM | > 25 µM | > 25 µM | > 25 µM
